Entries after “also recorded” stand apart in the source; their conditions may differ. Read-outs that look alike come from different tables or passages of the source.
Assays:
[1] = Plasma stability assay, mouse plasma; assay type: in vitro ADME; settings: Method 1 (5 μM)
Experimental: From stock solution of compound in 10 mM DMSO, a working solution of 1 mM is prepared by diluting the compound in DMSO. To 398 μL of plasma pre-warmed at 37° C. for 15 minutes), 2 μL of working solution of compound is added, resulting in a final concentration of 5 μM (0.5% DMSO) for the compound. The sample is then incubated at 37° C. Aliquot is withdrawn at specified time-points (0, 15, 30, 60 and 120 mins). The reaction is stopped by addition of 450 μL cold acetonitrile containing internal standard (IS). […] Aliquots of the supernatant is analysed using LC-MS/MS. The percent remaining of the compound at each time point is calculated with respect to the control sample (0 min time-point).
A working solution of compound (500 μM) is prepared in DMSO (100%). To 735 μL of plasma, 15 μL of working solution of compound is added—resulting in a final concentration of 10 μM (2% DMSO) for the compound. The sample is then incubated at 37° C. Aliquot is withdrawn at time-points—0, 15, 30, 60, 90 and 120 mins. The reaction is stopped by using chilled acetonitrile containing internal standard (IS). The samples are centrifuged and the supernatants analyzed using LC-MS/MS. The percent remaining of the compound at each time point is calculated with respect to the control sample (0 min time-point).

[2] = Beagle dog PK study 2 of Example 101 (HPβCD based formulation, IV), with clinical observations; assay type: in vivo; settings: for concentration at 0.083 h / concentration at 0.25 h / concentration at 0.5 h / concentration at 1 h / concentration at 2 h / concentration at 4 h / concentration at 8 h / concentration at 24 h / AUC(0-inf) / AUC(0-t) / C0 / half-life / MRT inf / Vd: beagle, dog, plasma, iv, 1 mg/kg; for MRT inf: read-out: MRTInf—obs; for Vd: read-out: Vss—obs
Experimental: The purpose of this study was to examine the pharmacokinetics of Example 101 in beagle dogs. […] An oral PK study was also undertaken in Lewis rats—see Experimental Method C.
Body weight was recoded prior to dosing, and detailed clinical observations were made prior to dosing and throughout the study, as needed.
78.646 mL of HPβCD (20% solution w/v) was then added with vortex and sonication.
Blood samples (˜0.3 mL) were collected according to a schedule (shown below) by venipuncture of peripheral veins except for the dosing vein, and EDTA-K2 was used as anticoagulant. Within 30 minutes of collection, the samples were centrifuged at approximately 2000×g for 10 minutes at 4° C. to obtain blood plasma. The plasma samples were immediately divided into two aliquots (˜75 μL each), transferred to a cryogenic vial, and stored in a freezer at ˜75±15° C. prior to analysis.
Blood samples were collected at 0.083, 0.25, 0.5, 1, 2, 4, 8, and 24 h following the initial dosing (0 h).
The experiments were conducted on a Shimadzu DGU-20A5R and AB API 5500+LC/MS/MS instrument with an Agilent Poroshell EC-C18 4 μm (50×2.1 mm) column. A gradient of 95% water (0.1% formic acid)/95% acetonitrile (0.1% formic acid) was used as the mobile phase. The sample injection volume was 1 μL, and the flow rate was 0.6 mL/min. The gathered data were used for pharmacokinetic calculations using T½, C0, AUClast, AUCinf, MRTinf, CI, Vss, and Number of Points for Regression as parameters.

BRD4 BD2 = BRD4 BD2 (Homo sapiens (Human), UniProt O60885); experiment: NanoBRET bromodomain assay, NanoLuc-BRD4-BD2 fusion in HEK293 cells;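 also: tracer displacement BRET read in transfected cells after 2 h compound exposure at 37 °C, signal in milliBRET units corrected against no-tracer background wells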
[3] = beagle dogs, IV, 0.5 mg/mL in HPβCD based formulation, PK study 2
[4] = dog PK study 2, IV 1 mg/kg, HPβCD, Test Animal 1, read-out: Plasma concentration
[5] = dog PK study 2, IV 1 mg/kg, HPβCD, Test Animal 2, read-out: Plasma concentration
[6] = dog PK study 2, IV 1 mg/kg, HPβCD, Test Animal 3, read-out: Plasma concentration
[7] = dog PK study 2, IV 1 mg/kg, HPβCD, mean, read-out: Average plasma concentration, Mean
[8] = dog PK study 2, IV 1 mg/kg, HPβCD, Test Animal 1
[9] = dog PK study 2, IV 1 mg/kg, HPβCD, Test Animal 2
[10] = dog PK study 2, IV 1 mg/kg, HPβCD, Test Animal 3
[11] = dog PK study 2, IV 1 mg/kg, HPβCD, mean

CNC(=O)c1[nH]c(C(=O)NC2CCC2)cc1O[C@@H](C)c1ccccc1 (stereo in doubt) [Example 101, N^5-cyclobutyl-N^2-methyl-3-(1-phenylethoxy)-1H-pyrrole-2,5-dicarboxamide]
Plasma Stability (% remaining at 120 minutes), Mouse [1]: >99%
clinical observations [2, 3]: soft feces 8 hours after administration; also recorded: No other clinical observations were made; also recorded: fewer clinical observations in response to Example 101 when prepared in HPβCD
plasma concentration as a function of time (FIGS. 1D-1E) [2, 3]: Plasma concentrations decreased similarly over the first 2 h post-administration
concentration at 0.083 h [2, 4]: 1270 ng/mL
concentration at 0.083 h [2, 5]: 1460 ng/mL
concentration at 0.083 h [2, 6]: 1580 ng/mL
concentration at 0.083 h [2, 7]: 1440 ng/mL
concentration at 0.25 h [2, 4]: 721 ng/mL
concentration at 0.25 h [2, 5]: 820 ng/mL
concentration at 0.25 h [2, 6]: 985 ng/mL
concentration at 0.25 h [2, 7]: 842 ng/mL
concentration at 0.5 h [2, 4]: 322 ng/mL
concentration at 0.5 h [2, 5]: 498 ng/mL
concentration at 0.5 h [2, 6]: 702 ng/mL
concentration at 0.5 h [2, 7]: 507 ng/mL
concentration at 1 h [2, 4]: 187 ng/mL
concentration at 1 h [2, 5]: 140 ng/mL
concentration at 1 h [2, 6]: 320 ng/mL
concentration at 1 h [2, 7]: 216 ng/mL
concentration at 2 h [2, 4]: 49.3 ng/mL
concentration at 2 h [2, 5]: 54.1 ng/mL
concentration at 2 h [2, 6]: 159 ng/mL
concentration at 2 h [2, 7]: 87 ng/mL
concentration at 4 h [2, 4]: 4.83 ng/mL
concentration at 4 h [2, 5]: 10.8 ng/mL
concentration at 4 h [2, 6]: 42.1 ng/mL
concentration at 4 h [2, 7]: 19.2 ng/mL
concentration at 8 h [2, 4]: 0 ng/mL
concentration at 8 h [2, 5]: 2.5 ng/mL
concentration at 8 h [2, 6]: 6.58 ng/mL
concentration at 8 h [2, 7]: 3.03 ng/mL
concentration at 24 h ([2]; dog PK study 2, IV 1 mg/kg, HPβCD, 24 h, Test Animal 1): 0 ng/mL
concentration at 24 h ([2]; dog PK study 2, IV 1 mg/kg, HPβCD, 24 h, Test Animal 2): 0 ng/mL
concentration at 24 h ([2]; dog PK study 2, IV 1 mg/kg, HPβCD, 24 h, Test Animal 3): 0 ng/mL
AUC(0-inf) [2, 8]: 723 ng·h/mL
AUC(0-t) [2, 8]: 719 ng·h/mL
C0 [2, 8]: 1680 ng/mL
half-life [2, 8]: 34.4 min
MRT inf [2, 8]: 36.4 min
Vd [2, 8]: 0.838 L/kg
AUC(0-inf) [2, 9]: 850 ng·h/mL
AUC(0-t) [2, 9]: 844 ng·h/mL
C0 [2, 9]: 1940 ng/mL
half-life [2, 9]: 84.6 min
MRT inf [2, 9]: 45.1 min
Vd [2, 9]: 0.886 L/kg
AUC(0-inf) [2, 10]: 1380 ng·h/mL
AUC(0-t) [2, 10]: 1370 ng·h/mL
C0 [2, 10]: 2000 ng/mL
half-life [2, 10]: 79.8 min
MRT inf [2, 10]: 72 min
Vd [2, 10]: 0.868 L/kg
AUC(0-inf) [2, 11]: 984 ng·h/mL
AUC(0-t) [2, 11]: 977 ng·h/mL
C0 [2, 11]: 1880 ng/mL
half-life [2, 11]: 66 min
MRT inf [2, 11]: 51 min
Vd [2, 11]: 0.864 L/kg
Average plasma concentration, Mean ([2]; dog PK study 2, IV 1 mg/kg, HPβCD, 24 h, mean): BLOQ
AUClast/D [2, 8]: 719 (ng · h/mL)/(mg/kg)
AUC—% Extrap—obs [2, 8]: 0.552%
Cl_obs [2, 8]: 23.1 mL/min/kg
AUClast/D [2, 9]: 844 (ng · h/mL)/(mg/kg)
AUC—% Extrap—obs [2, 9]: 0.599%
Cl_obs [2, 9]: 19.6 mL/min/kg
AUClast/D [2, 10]: 1367 (ng · h/mL)/(mg/kg)
AUC—% Extrap—obs [2, 10]: 0.915%
Cl_obs [2, 10]: 12.1 mL/min/kg
AUClast/D [2, 11]: 977 (ng · h/mL)/(mg/kg)
AUC—% Extrap—obs [2, 11]: 0.689%
Cl_obs [2, 11]: 18.3 mL/min/kg
selectivity for BDII relative to GSK620 (BRD4 BD2): more selective than GSK620 for BDII by greater than about two orders of magnitude
IC50 (BRD4 BD2; BRD4 BD2 (IC50), NanoBRET, HEK293 cells, top concentration 10 μM): < 50 nM
Fold selectivity (BRD4 BD2; IC50 for BRD4 BD1 divided by IC50 for BRD4 BD2, qualitative if an IC50 is at the upper limit): XXX (Fold >200)

— patent US20250263370A1 (Tay Therapeutics Limited, priority 2022, published 2025)
